{
  "source": "the kinase profiling compilation of Christmann-Franck et al. (2016)",
  "experiment_in_all_cases": "radiometric filter-binding kinase assay",
  "key": {"JAK2 JH1 JH2 (human)": {"biological_target": "JAK2 JH1 JH2 (human) (UniProt O60674)", "conditions": "compound 1.0 µM"}, "MAP3K11 (human)": {"biological_target": "MAP3K11 (human) (UniProt Q16584)"}, "MKNK2 (human)": {"biological_target": "MKNK2 (human) (UniProt Q9HBH9)"}, "MAP3K7 (human)": {"biological_target": "MAP3K7 (human) (UniProt O43318)"}, "AURKA (human)": {"biological_target": "AURKA (human) (UniProt O14965)", "sequence (O14965 whole entry, looked up)": "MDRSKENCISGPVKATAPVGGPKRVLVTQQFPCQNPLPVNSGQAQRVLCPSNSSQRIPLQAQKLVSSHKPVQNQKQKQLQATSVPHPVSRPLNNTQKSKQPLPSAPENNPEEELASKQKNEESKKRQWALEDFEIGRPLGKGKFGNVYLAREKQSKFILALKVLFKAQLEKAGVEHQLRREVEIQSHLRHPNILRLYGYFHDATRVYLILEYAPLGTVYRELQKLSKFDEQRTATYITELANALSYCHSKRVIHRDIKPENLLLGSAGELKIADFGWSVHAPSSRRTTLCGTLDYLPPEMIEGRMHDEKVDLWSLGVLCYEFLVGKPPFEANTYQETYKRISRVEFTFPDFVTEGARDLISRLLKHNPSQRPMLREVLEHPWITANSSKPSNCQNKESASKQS"}, "MKNK1 (human)": {"biological_target": "MKNK1 (human) (UniProt Q9BUB5)"}, "MAP2K6 (human)": {"biological_target": "MAP2K6 (human) (UniProt P52564)", "sequence (P52564 whole entry, looked up)": "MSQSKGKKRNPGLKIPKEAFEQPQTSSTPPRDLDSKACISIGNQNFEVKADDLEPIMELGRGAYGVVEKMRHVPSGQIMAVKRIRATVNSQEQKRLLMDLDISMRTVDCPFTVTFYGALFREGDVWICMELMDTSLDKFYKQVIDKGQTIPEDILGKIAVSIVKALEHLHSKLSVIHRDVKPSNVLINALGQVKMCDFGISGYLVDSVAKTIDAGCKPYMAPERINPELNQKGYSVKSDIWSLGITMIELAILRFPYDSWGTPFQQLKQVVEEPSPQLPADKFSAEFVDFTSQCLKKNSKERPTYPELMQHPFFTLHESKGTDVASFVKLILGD"}, "PDGFRA (human)": {"biological_target": "PDGFRA (human) (UniProt P16234)"}, "[1]": {"tested_on": "AKT2 (human), P31751 [S474D]"}, "PKN2 (human)": {"biological_target": "PKN2 (human) (UniProt Q16513)"}, "HIPK2 (human)": {"biological_target": "HIPK2 (human) (UniProt Q9H2X6)"}, "DYRK2 (human)": {"biological_target": "DYRK2 (human) (UniProt Q92630)"}, "EPHB1 (human)": {"biological_target": "EPHB1 (human) (UniProt P54762)", "sequence (P54762 whole entry, looked up)": "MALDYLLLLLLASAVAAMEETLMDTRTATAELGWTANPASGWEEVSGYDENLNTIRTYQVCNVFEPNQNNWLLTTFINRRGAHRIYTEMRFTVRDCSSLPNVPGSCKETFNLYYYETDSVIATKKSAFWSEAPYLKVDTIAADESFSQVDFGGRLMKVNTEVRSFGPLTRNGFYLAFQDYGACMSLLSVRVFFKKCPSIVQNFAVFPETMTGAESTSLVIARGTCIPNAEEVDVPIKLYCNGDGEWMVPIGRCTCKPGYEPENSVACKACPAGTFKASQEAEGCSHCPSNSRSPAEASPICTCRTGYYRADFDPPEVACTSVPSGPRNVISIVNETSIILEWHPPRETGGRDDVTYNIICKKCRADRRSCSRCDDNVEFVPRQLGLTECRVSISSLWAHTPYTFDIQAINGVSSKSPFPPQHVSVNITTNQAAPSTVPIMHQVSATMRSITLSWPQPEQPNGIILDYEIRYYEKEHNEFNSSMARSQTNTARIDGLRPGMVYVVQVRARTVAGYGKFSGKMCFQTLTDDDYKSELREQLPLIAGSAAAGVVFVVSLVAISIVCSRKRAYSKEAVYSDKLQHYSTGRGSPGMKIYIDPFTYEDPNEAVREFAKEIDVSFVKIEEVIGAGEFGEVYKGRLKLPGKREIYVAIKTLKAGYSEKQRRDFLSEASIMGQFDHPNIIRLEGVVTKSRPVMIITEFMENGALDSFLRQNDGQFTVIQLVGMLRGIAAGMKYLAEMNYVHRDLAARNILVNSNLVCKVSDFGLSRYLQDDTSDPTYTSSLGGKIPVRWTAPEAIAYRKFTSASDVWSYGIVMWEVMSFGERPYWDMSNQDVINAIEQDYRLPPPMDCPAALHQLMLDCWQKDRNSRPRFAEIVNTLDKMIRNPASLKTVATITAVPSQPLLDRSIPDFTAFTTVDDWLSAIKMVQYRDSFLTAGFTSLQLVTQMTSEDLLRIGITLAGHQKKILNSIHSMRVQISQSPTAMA"}, "TLK1 (human)": {"biological_target": "TLK1 (human) (UniProt Q9UKI8)"}, "IKBKB (human)": {"biological_target": "IKBKB (human) (UniProt O14920)", "conditions": "compound 1.0 µM"}, "EPHA4 (human)": {"biological_target": "EPHA4 (human) (UniProt P54764)"}, "CLK2 (human)": {"biological_target": "CLK2 (human) (UniProt P49760)"}, "CHEK1 (human)": {"biological_target": "CHEK1 (human) (UniProt O14757)"}, "CSNK1D (human)": {"biological_target": "CSNK1D (human) (UniProt P48730)"}, "HIPK3 (human)": {"biological_target": "HIPK3 (human) (UniProt Q9H422)", "conditions": "compound 1.0 µM"}, "TTBK1 (human)": {"biological_target": "TTBK1 (human) (UniProt Q5TCY1)"}, "PAK4 (human)": {"biological_target": "PAK4 (human) (UniProt O96013)", "sequence (O96013 whole entry, looked up)": "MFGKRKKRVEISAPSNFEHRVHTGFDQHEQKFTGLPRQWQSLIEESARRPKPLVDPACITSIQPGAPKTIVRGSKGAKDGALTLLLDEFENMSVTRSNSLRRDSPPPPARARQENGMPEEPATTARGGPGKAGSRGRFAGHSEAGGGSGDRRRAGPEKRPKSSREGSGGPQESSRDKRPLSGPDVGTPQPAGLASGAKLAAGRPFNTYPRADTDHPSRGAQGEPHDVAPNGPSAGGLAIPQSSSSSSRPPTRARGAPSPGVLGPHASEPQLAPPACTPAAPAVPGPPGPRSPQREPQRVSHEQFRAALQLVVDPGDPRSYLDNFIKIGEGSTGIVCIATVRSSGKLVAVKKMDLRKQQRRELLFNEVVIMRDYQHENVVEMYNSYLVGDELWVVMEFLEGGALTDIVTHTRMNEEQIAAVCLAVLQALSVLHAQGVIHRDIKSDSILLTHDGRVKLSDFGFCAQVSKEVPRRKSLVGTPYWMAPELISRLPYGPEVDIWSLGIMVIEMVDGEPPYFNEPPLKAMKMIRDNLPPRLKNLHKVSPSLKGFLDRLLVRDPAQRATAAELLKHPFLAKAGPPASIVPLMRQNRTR"}, "MAPK10 (human)": {"biological_target": "MAPK10 (human) (UniProt P53779)"}, "INSR (human)": {"biological_target": "INSR (human) (UniProt P06213)"}, "EEF2K (human)": {"biological_target": "EEF2K (human) (UniProt O00418)"}, "MAPK12 (human)": {"biological_target": "MAPK12 (human) (UniProt P53778)"}, "NUAK1 (human)": {"biological_target": "NUAK1 (human) (UniProt O60285)"}, "TTK (human)": {"biological_target": "TTK (human) (UniProt P33981)"}, "[2]": {"tested_on": "OXSR1 (human), O95747 [T185E]"}, "CSNK2A1 (human)": {"biological_target": "CSNK2A1 (human) (UniProt P68400)", "sequence (P68400 whole entry, looked up)": "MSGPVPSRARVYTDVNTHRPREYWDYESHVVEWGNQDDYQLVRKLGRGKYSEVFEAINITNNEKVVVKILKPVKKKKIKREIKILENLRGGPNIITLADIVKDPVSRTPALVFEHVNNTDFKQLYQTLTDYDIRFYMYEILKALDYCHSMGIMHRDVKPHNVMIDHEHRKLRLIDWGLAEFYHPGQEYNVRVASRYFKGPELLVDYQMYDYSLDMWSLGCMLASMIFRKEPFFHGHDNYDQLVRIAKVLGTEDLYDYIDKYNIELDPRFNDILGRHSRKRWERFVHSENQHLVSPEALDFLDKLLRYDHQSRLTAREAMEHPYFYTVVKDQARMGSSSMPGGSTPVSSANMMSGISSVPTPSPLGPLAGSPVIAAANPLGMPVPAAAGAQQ"}, "MAP3K5 (human)": {"biological_target": "MAP3K5 (human) (UniProt Q99683)", "conditions": "compound 10.0 µM"}, "TBK1 (human)": {"biological_target": "TBK1 (human) (UniProt Q9UHD2)"}, "WNK1 (human)": {"biological_target": "WNK1 (human) (UniProt Q9H4A3)", "sequence (Q9H4A3 whole entry, looked up)": "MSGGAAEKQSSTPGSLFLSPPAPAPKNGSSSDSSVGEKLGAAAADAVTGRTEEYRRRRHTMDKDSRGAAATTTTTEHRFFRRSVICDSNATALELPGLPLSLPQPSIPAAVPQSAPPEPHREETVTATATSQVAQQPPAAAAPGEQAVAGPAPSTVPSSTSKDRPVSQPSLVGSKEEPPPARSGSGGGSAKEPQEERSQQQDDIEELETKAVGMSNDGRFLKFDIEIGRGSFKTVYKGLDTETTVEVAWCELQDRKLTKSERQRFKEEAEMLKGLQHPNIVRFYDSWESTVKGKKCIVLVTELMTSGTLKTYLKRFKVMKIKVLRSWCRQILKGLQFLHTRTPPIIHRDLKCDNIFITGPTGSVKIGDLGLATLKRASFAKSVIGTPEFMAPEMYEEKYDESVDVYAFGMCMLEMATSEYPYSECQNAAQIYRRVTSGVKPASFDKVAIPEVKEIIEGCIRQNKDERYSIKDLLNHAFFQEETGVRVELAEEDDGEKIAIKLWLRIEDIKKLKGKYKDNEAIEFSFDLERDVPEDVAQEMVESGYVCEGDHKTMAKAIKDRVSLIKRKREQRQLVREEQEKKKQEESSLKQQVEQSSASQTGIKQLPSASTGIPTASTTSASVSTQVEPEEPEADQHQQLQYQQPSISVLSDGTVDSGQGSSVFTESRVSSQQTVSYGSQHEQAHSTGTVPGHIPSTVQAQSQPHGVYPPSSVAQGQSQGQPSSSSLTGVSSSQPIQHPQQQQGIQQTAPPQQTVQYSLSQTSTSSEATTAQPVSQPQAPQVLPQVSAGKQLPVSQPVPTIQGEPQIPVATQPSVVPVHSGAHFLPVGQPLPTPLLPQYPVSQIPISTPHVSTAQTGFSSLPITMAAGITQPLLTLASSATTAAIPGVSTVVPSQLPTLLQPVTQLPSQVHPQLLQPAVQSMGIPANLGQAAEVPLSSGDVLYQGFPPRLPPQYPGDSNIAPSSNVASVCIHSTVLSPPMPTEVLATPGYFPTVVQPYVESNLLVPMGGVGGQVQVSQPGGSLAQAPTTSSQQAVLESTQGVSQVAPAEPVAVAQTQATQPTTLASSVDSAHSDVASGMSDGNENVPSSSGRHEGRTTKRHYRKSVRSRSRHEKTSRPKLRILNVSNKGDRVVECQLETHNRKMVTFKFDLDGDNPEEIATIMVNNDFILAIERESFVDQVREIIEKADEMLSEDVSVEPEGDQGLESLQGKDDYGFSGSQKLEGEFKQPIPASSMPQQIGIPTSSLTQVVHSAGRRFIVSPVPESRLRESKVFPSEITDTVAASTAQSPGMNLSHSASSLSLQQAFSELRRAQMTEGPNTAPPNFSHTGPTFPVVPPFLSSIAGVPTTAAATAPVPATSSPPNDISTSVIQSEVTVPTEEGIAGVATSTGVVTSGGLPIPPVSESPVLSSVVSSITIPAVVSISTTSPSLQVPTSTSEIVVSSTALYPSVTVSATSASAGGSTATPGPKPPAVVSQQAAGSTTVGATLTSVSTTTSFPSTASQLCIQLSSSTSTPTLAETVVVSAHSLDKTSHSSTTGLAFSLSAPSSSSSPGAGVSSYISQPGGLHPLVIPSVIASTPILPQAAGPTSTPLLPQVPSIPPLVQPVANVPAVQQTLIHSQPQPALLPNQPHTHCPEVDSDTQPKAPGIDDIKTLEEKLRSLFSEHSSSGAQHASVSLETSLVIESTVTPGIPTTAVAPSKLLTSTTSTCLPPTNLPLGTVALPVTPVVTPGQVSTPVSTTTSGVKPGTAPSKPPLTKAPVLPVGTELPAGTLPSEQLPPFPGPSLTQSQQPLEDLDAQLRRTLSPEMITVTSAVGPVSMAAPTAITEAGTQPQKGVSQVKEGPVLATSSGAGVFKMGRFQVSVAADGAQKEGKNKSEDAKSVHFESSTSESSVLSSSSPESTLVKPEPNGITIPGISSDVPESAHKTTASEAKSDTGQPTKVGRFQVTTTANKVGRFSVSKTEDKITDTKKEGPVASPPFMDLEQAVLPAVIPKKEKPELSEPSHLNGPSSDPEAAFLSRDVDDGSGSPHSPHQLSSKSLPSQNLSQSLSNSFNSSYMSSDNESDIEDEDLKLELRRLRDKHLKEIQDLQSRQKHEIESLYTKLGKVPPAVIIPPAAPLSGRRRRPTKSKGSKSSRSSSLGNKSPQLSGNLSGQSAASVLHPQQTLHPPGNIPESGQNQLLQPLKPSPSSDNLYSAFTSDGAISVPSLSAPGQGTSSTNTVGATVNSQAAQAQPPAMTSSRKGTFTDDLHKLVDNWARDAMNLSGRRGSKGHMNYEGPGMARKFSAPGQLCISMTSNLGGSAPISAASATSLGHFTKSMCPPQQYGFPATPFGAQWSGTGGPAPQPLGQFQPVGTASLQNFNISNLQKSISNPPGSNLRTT"}},
  "data": [
    {"smiles": "CNc1nc(Nc2ccc(C(=O)N3CCOCC3)cc2OC)ncc1Cl", "values": [
      {"measurement": "residual activity", "setting": "JAK2 JH1 JH2 (human)", "result": 83, "unit": "%"},
      {"measurement": "residual activity", "setting": "MAP3K11 (human); compound 1.0 µM", "result": 75, "unit": "%"},
      {"measurement": "residual activity", "setting": "MAP3K11 (human); compound 10.0 µM", "result": 43, "unit": "%"},
      {"measurement": "residual activity", "setting": "MKNK2 (human); compound 1.0 µM", "result": 20, "unit": "%"},
      {"measurement": "residual activity", "setting": "MKNK2 (human); compound 10.0 µM", "result": 7, "unit": "%"},
      {"measurement": "residual activity", "setting": "MAP3K7 (human); compound 1.0 µM", "result": 74, "unit": "%"},
      {"measurement": "residual activity", "setting": "MAP3K7 (human); compound 10.0 µM", "result": 25, "unit": "%"},
      {"measurement": "residual activity", "setting": "AURKA (human); compound 1.0 µM", "result": 56, "unit": "%"},
      {"measurement": "residual activity", "setting": "AURKA (human); compound 10.0 µM", "result": 45, "unit": "%"},
      {"measurement": "residual activity", "setting": "MKNK1 (human); compound 1.0 µM", "result": 71, "unit": "%"},
      {"measurement": "residual activity", "setting": "MKNK1 (human); compound 10.0 µM", "result": 44, "unit": "%"},
      {"measurement": "residual activity", "setting": "MAP2K6 (human); compound 1.0 µM", "result": 74, "unit": "%"},
      {"measurement": "residual activity", "setting": "MAP2K6 (human); compound 10.0 µM", "result": 65, "unit": "%"},
      {"measurement": "residual activity", "setting": "PDGFRA (human); compound 1.0 µM", "result": 79, "unit": "%"},
      {"measurement": "residual activity", "setting": "PDGFRA (human); compound 10.0 µM", "result": 56, "unit": "%"},
      {"measurement": "residual activity", "setting": "[1]; compound 1.0 µM", "result": 95, "unit": "%"},
      {"measurement": "residual activity", "setting": "[1]; compound 10.0 µM", "result": 64, "unit": "%"},
      {"measurement": "residual activity", "setting": "PKN2 (human); compound 1.0 µM", "result": 102, "unit": "%"},
      {"measurement": "residual activity", "setting": "PKN2 (human); compound 10.0 µM", "result": 92, "unit": "%"},
      {"measurement": "residual activity", "setting": "HIPK2 (human); compound 1.0 µM", "result": 77, "unit": "%"},
      {"measurement": "residual activity", "setting": "HIPK2 (human); compound 10.0 µM", "result": 88, "unit": "%"},
      {"measurement": "residual activity", "setting": "DYRK2 (human); compound 1.0 µM", "result": 44, "unit": "%"},
      {"measurement": "residual activity", "setting": "DYRK2 (human); compound 10.0 µM", "result": 21, "unit": "%"},
      {"measurement": "residual activity", "setting": "EPHB1 (human); compound 1.0 µM", "result": 115, "unit": "%"},
      {"measurement": "residual activity", "setting": "EPHB1 (human); compound 10.0 µM", "result": 86, "unit": "%"},
      {"measurement": "residual activity", "setting": "TLK1 (human); compound 1.0 µM", "result": 61, "unit": "%"},
      {"measurement": "residual activity", "setting": "TLK1 (human); compound 10.0 µM", "result": 100, "unit": "%"},
      {"measurement": "residual activity", "setting": "IKBKB (human)", "result": 82, "unit": "%"},
      {"measurement": "residual activity", "setting": "EPHA4 (human); compound 1.0 µM", "result": 100, "unit": "%"},
      {"measurement": "residual activity", "setting": "EPHA4 (human); compound 10.0 µM", "result": 94, "unit": "%"},
      {"measurement": "residual activity", "setting": "CLK2 (human); compound 1.0 µM", "result": 91, "unit": "%"},
      {"measurement": "residual activity", "setting": "CLK2 (human); compound 10.0 µM", "result": 76, "unit": "%"},
      {"measurement": "residual activity", "setting": "CHEK1 (human); compound 1.0 µM", "result": 65, "unit": "%"},
      {"measurement": "residual activity", "setting": "CHEK1 (human); compound 10.0 µM", "result": 45, "unit": "%"},
      {"measurement": "residual activity", "setting": "CSNK1D (human); compound 1.0 µM", "result": 44, "unit": "%"},
      {"measurement": "residual activity", "setting": "CSNK1D (human); compound 10.0 µM", "result": 89, "unit": "%"},
      {"measurement": "residual activity", "setting": "HIPK3 (human)", "result": 85, "unit": "%"},
      {"measurement": "residual activity", "setting": "TTBK1 (human); compound 1.0 µM", "result": 88, "unit": "%"},
      {"measurement": "residual activity", "setting": "TTBK1 (human); compound 10.0 µM", "result": 91, "unit": "%"},
      {"measurement": "residual activity", "setting": "PAK4 (human); compound 1.0 µM", "result": 87, "unit": "%"},
      {"measurement": "residual activity", "setting": "PAK4 (human); compound 10.0 µM", "result": 84, "unit": "%"},
      {"measurement": "residual activity", "setting": "MAPK10 (human); compound 1.0 µM", "result": 60, "unit": "%"},
      {"measurement": "residual activity", "setting": "MAPK10 (human); compound 10.0 µM", "result": 29, "unit": "%"},
      {"measurement": "residual activity", "setting": "INSR (human); compound 1.0 µM", "result": 86, "unit": "%"},
      {"measurement": "residual activity", "setting": "INSR (human); compound 10.0 µM", "result": 50, "unit": "%"},
      {"measurement": "residual activity", "setting": "EEF2K (human); compound 1.0 µM", "result": 83, "unit": "%"},
      {"measurement": "residual activity", "setting": "EEF2K (human); compound 10.0 µM", "result": 86, "unit": "%"},
      {"measurement": "residual activity", "setting": "MAPK12 (human); compound 1.0 µM", "result": 88, "unit": "%"},
      {"measurement": "residual activity", "setting": "MAPK12 (human); compound 10.0 µM", "result": 94, "unit": "%"},
      {"measurement": "residual activity", "setting": "NUAK1 (human); compound 1.0 µM", "result": 43, "unit": "%"},
      {"measurement": "residual activity", "setting": "NUAK1 (human); compound 10.0 µM", "result": 20, "unit": "%"},
      {"measurement": "residual activity", "setting": "TTK (human); compound 1.0 µM", "result": 71, "unit": "%"},
      {"measurement": "residual activity", "setting": "TTK (human); compound 10.0 µM", "result": 57, "unit": "%"},
      {"measurement": "residual activity", "setting": "[2]; compound 1.0 µM", "result": 108, "unit": "%"},
      {"measurement": "residual activity", "setting": "[2]; compound 10.0 µM", "result": 82, "unit": "%"},
      {"measurement": "residual activity", "setting": "CSNK2A1 (human); compound 1.0 µM", "result": 50, "unit": "%"},
      {"measurement": "residual activity", "setting": "CSNK2A1 (human); compound 10.0 µM", "result": 88, "unit": "%"},
      {"measurement": "residual activity", "setting": "MAP3K5 (human)", "result": 54, "unit": "%"},
      {"measurement": "residual activity", "setting": "TBK1 (human); compound 1.0 µM", "result": 86, "unit": "%"},
      {"measurement": "residual activity", "setting": "TBK1 (human); compound 10.0 µM", "result": 42, "unit": "%"},
      {"measurement": "residual activity", "setting": "WNK1 (human); compound 1.0 µM", "result": 62, "unit": "%"},
      {"measurement": "residual activity", "setting": "WNK1 (human); compound 10.0 µM", "result": 99, "unit": "%"}
    ]}
  ]
}
